The source of these data is patent publication US20240132475A1, “SUBSTITUTED PYRAZOLYL COMPOUNDS AS MALT-1 INHIBITORS” (AURIGENE ONCOLOGY LIMITED, priority 2021, published 2024).

Where only a bound is given, the exact number is not on record here.

The assay addresses T1, MALT-1 (Isoform 1) (Homo sapiens, UniProt Q9UDY8).
T1 construct: using recombinant MALT-1 (Isoform 1, aa-840) generated in house; made in house
T1 sequence (Q9UDY8 1-824): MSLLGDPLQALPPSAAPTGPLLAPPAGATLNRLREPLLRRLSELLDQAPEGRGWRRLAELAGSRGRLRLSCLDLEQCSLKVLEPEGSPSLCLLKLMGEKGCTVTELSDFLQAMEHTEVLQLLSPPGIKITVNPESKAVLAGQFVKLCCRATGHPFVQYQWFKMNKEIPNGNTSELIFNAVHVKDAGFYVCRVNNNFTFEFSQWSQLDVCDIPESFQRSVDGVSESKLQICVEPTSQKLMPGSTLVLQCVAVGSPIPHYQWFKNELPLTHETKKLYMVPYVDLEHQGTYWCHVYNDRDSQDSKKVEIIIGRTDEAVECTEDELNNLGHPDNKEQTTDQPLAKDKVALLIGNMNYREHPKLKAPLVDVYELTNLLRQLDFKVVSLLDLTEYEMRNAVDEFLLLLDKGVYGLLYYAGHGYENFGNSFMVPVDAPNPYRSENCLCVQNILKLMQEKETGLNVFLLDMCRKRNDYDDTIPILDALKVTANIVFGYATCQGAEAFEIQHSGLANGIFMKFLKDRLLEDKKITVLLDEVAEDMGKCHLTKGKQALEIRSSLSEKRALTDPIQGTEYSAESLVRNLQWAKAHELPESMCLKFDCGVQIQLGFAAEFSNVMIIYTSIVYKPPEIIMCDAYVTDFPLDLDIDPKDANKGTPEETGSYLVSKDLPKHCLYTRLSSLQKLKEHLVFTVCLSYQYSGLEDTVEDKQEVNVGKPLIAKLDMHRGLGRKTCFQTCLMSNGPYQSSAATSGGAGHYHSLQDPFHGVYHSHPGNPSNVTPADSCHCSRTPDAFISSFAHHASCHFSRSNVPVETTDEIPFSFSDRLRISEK
Description: MALT-1 (Isoform 1) enzyme fluorescent biochemical assay. To be noted: for IC50: dose-response, sigmoidal curve fit, reported as groups A, B, C; for inhibition at 1 µM: test compound 1 μM, read-out: Percent Inhibition (1 μM). The method, boiled down: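 Recombinant MALT-1 (Isoform 1, aa-840) at 1.5 nM preincubated 30 minutes at 30° C with compound ([…], 1% DMSO) in pH 7.5 HEPES buffer with 0.9 M sodium citrate. Cleavage of […] Ac-LRSR-AMC followed for 240 min, fluorescence at 355/460 nm; percent inhibition versus control, IC50 from sigmoidal fit.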

What is called IC50 is the concentration that gives 50% inhibition. A lower IC50 goes with inhibition by little substance. For orientation: inhibition means the percentage by which the read-out fell short of the control. Compound `N#Cc1cc(NC(=O)c2cnn(Cc3cccnc3)c2C(F)(F)F)cnc1-n1nccn1` [Compound 18, N-(5-cyano-6-(2H-1,2,3-triazol-2-yl)pyridin-3-yl)-1-(pyridin-3-ylmethyl)-5-(trifluoromethyl)-1H-pyrazole-4-carboxamide] gave an IC50 above 1 µM. The inhibition at 1 µM (recombinant MALT-1 1.5 nM) is 47%.
In the case of `O=C(Nc1ccnc(C(O)C(F)(F)F)c1)c1cnn(Cc2cccc(F)c2Cl)c1C(F)(F)F` (centres unmarked) [Compound 47, 1-(2-chloro-3-fluorobenzyl)-N-(2-(2,2,2-trifluoro-1-hydroxyethyl)pyridin-4-y1)-5-(trifluoromethyl)-1H-pyrazole-4-carboxamide], the inhibition at 10 µM (test compound 10 μM (stated in the cell), recombinant MALT-1 1.5 nM, read-out: Percent Inhibition (10 μM)) came to 33%.
With `COc1c(F)cccc1Cn1ncc(C(=O)Nc2cnc(-n3nccn3)c(C#N)c2)c1C(F)(F)F` [Compound 39, N-(5-cyano-6-(2H-1,2,3-triazol-2-yl)pyridin-3-y1)-1-(3-fluoro-2-methoxybenzyl)-5-(trifluoromethyl)-1H-pyrazole-4-carboxamide], the IC50 is below 0.25 µM. For the same compound, the inhibition at 1 µM (recombinant MALT-1 1.5 nM) was determined as 100%.
In the case of `Cc1c(F)cccc1Cn1ncc(C(=O)Nc2cnc(-n3nccn3)c(F)c2)c1C(F)(F)F` [Compound 30, 1-(3-fluoro-2-methylbenzyl)-N-(5-fluoro-6-(2H-1,2,3-triazol-2-yl)pyridin-3-y1)-5-(trifluoromethyl)-1H-pyrazole-4-carboxamide], the IC50 fell in the range of 0.251 to 1 µM. For the same compound, the inhibition at 1 µM (recombinant MALT-1 1.5 nM) amounted to 97%.
Turning to `Cc1c(F)cccc1Cn1ncc(C(=O)Nc2cnc(-n3nccn3)c(C#N)c2)c1C(F)(F)F` [Compound 26, N-(5-cyano-6-(2H-1,2,3-triazol-2-yl)pyridin-3-y1)-1-(3-fluoro-2-methylbenzyl)-5-(trifluoromethyl)-1H-pyrazole-4-carboxamide], the IC50 was below 0.25 µM. In addition, the inhibition at 1 µM (recombinant MALT-1 1.5 nM) was 100%.
The corresponding values for `Cc1c(F)cccc1Cn1ncc(C(=O)Nc2cnc(-n3nccn3)c(C(F)(F)F)c2)c1C(F)(F)F` [Compound 31, N-(6-(2H-1,2,3-triazol-2-y1)-5-(trifluoromethyl)pyridin-3-y1)-1-(3-fluoro-2-methylbenzy1)-5-(trifluoromethyl)-1H-pyrazole-4-carboxamide] are below 0.25 µM and 95%.
